Experimental findings from PMC12136037, “Type II kinase inhibitors that target Parkinson’s disease–associated LRRK2” (Science Advances, 2025) are described below.

SMILES strings stand for the structures.

Common to all, as to assay: DSF 100 kinase selectivity screen;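 also: compound tested at 20 µM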
Common to all, as to type: binding

In test [1] the target is T1, ~100 representative kinases (Homo sapiens, UniProt P16083).
T1 construct: Recombinant protein kinase domains with a concentration of 2 μM
T1 sequence (P16083 1-231): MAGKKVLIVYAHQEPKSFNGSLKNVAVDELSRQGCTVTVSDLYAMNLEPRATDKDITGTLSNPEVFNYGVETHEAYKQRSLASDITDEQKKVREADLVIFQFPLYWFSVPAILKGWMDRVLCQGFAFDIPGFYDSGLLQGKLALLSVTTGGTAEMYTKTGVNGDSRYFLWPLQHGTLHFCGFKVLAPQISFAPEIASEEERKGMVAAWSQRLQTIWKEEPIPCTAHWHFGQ
The following applies: protein NQO2; average of three replicates. In a few lines:
(§1)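 Each kinase domain, at 2 μM, is mixed with 20 μM test compound and SYPRO Orange in Hepes (20 mM, pH 7.5) with 500 mM NaCl. Temperature is then raised at 3°C/min and fluorescence-monitored unfolding yields the melting temperature change, ΔTm in degrees Celsius.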

The target in test [2] is T2, ~100 representative kinases (Homo sapiens, UniProt O96013).
T2 construct: Recombinant protein kinase domains with a concentration of 2 μM
T2 sequence (O96013 whole entry, the tested form may be a part): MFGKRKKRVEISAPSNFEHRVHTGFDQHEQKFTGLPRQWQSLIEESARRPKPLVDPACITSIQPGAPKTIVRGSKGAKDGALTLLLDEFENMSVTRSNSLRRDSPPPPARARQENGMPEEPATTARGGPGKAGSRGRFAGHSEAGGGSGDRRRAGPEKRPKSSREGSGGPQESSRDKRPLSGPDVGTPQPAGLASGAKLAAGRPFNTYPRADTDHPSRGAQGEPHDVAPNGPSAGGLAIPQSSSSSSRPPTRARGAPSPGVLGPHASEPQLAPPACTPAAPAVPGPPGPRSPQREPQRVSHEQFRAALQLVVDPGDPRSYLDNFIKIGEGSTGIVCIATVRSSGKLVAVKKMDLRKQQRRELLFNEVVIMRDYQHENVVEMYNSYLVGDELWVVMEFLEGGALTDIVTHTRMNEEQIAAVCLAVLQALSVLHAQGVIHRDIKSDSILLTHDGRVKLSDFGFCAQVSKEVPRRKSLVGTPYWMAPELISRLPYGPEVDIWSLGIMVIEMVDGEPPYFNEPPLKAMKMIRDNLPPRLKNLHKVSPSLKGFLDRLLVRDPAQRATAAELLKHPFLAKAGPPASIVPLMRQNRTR
The settings on record: protein PAK4; average of three replicates. An outline of the steps: as §1

The target in test [3] is T3, ~100 representative kinases (Homo sapiens, UniProt O94768).
T3 construct: Recombinant protein kinase domains with a concentration of 2 μM
T3 sequence (O94768 1-372): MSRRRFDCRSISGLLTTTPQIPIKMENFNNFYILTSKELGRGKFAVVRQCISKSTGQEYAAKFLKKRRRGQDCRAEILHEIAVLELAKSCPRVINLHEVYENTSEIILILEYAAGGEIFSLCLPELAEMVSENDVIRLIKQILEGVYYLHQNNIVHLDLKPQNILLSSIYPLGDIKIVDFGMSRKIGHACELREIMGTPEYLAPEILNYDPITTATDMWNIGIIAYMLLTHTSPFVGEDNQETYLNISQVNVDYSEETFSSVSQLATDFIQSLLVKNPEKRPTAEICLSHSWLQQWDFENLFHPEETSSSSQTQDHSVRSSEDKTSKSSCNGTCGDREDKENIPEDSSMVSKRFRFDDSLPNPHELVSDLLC
The settings on record: Protein STK17B; DSF; average of three replicates. In a few lines:
as §1

Test [4] has as its target T4, ~100 representative kinases (Homo sapiens, UniProt Q8TF76).
T4 construct: Recombinant protein kinase domains with a concentration of 2 μM
T4 sequence (Q8TF76 1-798): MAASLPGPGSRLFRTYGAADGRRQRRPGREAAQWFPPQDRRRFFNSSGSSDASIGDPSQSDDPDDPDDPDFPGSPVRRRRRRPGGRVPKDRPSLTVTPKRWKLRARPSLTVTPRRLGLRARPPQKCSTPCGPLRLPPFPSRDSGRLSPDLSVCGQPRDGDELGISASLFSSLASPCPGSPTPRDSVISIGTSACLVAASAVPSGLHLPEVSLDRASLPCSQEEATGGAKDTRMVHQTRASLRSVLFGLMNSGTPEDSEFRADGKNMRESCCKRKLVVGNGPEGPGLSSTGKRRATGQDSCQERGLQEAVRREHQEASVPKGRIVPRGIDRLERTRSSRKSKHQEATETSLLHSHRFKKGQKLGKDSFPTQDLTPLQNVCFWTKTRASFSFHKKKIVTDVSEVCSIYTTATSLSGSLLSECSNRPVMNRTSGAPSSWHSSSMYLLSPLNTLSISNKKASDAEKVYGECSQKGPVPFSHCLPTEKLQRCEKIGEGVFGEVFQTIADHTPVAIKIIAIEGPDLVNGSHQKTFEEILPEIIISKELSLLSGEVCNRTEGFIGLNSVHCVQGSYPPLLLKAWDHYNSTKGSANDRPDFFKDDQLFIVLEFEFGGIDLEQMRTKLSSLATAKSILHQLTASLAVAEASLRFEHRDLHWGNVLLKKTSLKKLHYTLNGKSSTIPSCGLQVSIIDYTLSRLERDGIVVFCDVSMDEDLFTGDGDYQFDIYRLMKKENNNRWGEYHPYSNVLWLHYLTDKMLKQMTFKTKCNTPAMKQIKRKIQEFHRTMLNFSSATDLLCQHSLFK
The following applies: protein GSG2; average of three replicates. In a few lines:
as §1

Test [5] deals with T5, ~100 representative kinases (Homo sapiens, UniProt P54756).
T5 construct: Recombinant protein kinase domains with a concentration of 2 μM
T5 sequence (P54756 25-1037): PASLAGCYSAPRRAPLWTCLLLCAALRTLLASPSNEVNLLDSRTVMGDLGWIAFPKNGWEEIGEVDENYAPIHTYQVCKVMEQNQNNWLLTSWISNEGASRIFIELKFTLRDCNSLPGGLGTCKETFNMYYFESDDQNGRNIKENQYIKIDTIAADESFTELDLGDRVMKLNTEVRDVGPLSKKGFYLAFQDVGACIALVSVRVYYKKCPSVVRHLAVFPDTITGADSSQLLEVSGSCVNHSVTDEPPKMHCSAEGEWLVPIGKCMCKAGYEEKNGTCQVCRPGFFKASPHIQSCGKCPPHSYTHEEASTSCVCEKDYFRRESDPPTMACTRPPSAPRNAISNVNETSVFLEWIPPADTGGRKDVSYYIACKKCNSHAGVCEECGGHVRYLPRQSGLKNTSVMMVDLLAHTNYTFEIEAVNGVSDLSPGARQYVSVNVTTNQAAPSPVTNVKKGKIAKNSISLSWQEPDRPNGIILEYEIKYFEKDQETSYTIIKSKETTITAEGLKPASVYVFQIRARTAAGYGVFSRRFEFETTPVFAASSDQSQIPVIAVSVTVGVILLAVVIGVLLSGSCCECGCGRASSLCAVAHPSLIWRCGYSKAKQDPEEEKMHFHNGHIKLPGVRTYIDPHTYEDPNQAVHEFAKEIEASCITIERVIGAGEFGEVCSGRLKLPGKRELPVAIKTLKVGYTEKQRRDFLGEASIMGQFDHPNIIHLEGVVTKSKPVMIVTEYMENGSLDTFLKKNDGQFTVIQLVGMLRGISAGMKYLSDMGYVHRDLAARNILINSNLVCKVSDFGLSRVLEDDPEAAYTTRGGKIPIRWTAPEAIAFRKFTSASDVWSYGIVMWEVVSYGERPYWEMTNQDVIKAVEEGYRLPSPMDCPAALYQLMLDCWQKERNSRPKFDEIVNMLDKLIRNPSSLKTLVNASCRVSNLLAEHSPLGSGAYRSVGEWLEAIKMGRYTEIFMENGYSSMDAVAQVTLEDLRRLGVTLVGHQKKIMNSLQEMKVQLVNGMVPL
The settings on record: Protein EPHA5; average of three replicates. In a few lines: as §1

Test [6] deals with T6, ~100 representative kinases (Homo sapiens, UniProt Q9UKI8).
T6 construct: Recombinant protein kinase domains with a concentration of 2 μM
T6 sequence (Q9UKI8 1-766): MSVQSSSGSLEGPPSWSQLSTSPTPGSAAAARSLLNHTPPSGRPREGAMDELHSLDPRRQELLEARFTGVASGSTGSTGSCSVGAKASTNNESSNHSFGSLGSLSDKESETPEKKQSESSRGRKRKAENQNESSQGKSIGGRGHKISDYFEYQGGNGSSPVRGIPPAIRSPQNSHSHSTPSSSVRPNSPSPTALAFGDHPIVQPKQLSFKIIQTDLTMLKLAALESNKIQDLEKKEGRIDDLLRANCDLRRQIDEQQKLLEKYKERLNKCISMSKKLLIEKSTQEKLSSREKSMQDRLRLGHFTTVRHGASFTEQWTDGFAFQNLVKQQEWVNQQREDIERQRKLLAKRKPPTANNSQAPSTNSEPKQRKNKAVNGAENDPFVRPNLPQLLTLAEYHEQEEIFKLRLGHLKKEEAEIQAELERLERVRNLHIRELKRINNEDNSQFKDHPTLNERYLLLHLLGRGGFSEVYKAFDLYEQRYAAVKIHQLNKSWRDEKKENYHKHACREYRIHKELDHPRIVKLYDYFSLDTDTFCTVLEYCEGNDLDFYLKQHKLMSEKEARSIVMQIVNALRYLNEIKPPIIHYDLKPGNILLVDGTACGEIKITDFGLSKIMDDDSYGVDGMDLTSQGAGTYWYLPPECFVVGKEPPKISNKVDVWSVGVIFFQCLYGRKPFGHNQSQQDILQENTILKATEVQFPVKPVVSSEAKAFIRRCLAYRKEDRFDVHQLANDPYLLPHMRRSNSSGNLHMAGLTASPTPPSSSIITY
The settings on record: Protein TLK1; DSF; average of three replicates. In a few lines: as §1

Consider `O=C(Nc1cccc(-c2c[nH]c3ncnc(N4CCOCC4)c23)c1)C1(C(=O)Nc2ccc(F)c(Cl)c2)CC1` [Compound 18], for which the dTm is 0.34 K in test [1]; 0.49 K in test [2]; 9.48 K in test [3]; -3.25 K in test [4]; 2.50 K in test [5]; 0.17 K in test [6].

Turning to `CCc1ccc(NC(=O)C2(C(=O)Nc3cccc(-c4c[nH]c5ncnc(N6CCOCC6)c45)c3)CC2)cc1` [Compound 15], the dTm is listed as 0.0657 K in test [1]; -0.0471 K in test [2]; 6.64 K in test [3]; -1.97 K in test [4]; 2.15 K in test [5]; -0.49 K in test [6].

`CCNc1nc(Nc2cc(F)c(C(=O)N3CCOCC3)cc2OC)ncc1C(F)(F)F` [GNE-7915]: the dTm in test [2] is listed as 1.08 K; in test [3], 1.02 K; in test [4], -0.09 K; in test [5] it was -0.45 K; in test [6], 0.65 K.

For `O=C(Nc1cccc(-c2c[nH]c3ncnc(N4CCOCC4)c23)c1)c1cccn(-c2ccc(F)cc2)c1=O` [Compound 4], the dTm in test [1] was -0.15 K; in test [2] it was -0.78 K; in test [3], 6.49 K; in test [4], -1.23 K; in test [5], 3.25 K; in test [6], -0.72 K.

As to `Cc1ccc(C(=O)Nc2ccc(CN3CCN(C)CC3)c(C(F)(F)F)c2)cc1C#Cc1cnc2[nH]ncc2c1` [GZD-824, reference compound], the dTm in test [2] is on record as 3.27 K; in test [3] it was -1.15 K; in test [4], 0.04 K; in test [5], 14.58 K; in test [6], -0.0844 K.

As to `O=C(Nc1ccccc1)C1(C(=O)Nc2cccc(-c3c[nH]c4ncnc(N5CCOCC5)c34)c2)CC1` [Compound 12], the dTm in test [1] is recorded as 1.99 K; in test [2] it was -0.15 K; in test [3], 7.92 K; in test [4], -0.45 K; in test [5], 1.91 K; in test [6] it was 0.18 K.

Turning to `Cc1ccc(C(=O)Nc2ccc(CN3CCN(C)CC3)c(C(F)(F)F)c2)cc1C#Cc1c[nH]c2ncnc(N3CCOCC3)c12` [Compound 1], the dTm in test [1] was 0.13 K; in test [2] it was 0.31 K; in test [3], 0.19 K; in test [4], 0.98 K; in test [5] it was 5.80 K; in test [6], 0.86 K.

As to `Cc1cc(F)ccc1NC(=O)C1(C(=O)Nc2cccc(-c3c[nH]c4ncnc(N5CCOCC5)c34)c2)CC1` [Compound 24], the dTm was -2.19 K in test [1]; -0.47 K in test [2]; 2.37 K in test [3]; -2.81 K in test [4]; 0.97 K in test [5]; -0.75 K in test [6].

On to `O=C(Nc1cc(F)cc(Br)c1)C1(C(=O)Nc2cccc(-c3c[nH]c4ncnc(N5CCOCC5)c34)c2)CC1` [Compound 27], for which the dTm in test [1] is given as -1.53 K; in test [2], 0.52 K; in test [3], 0.00 K; in test [4] it was -3.53 K; in test [5] it was 0.40 K; in test [6], 1.59 K.

Consider `O=C(Nc1ccc(Cl)cc1)C1(C(=O)Nc2cccc(-c3c[nH]c4ncnc(N5CCOCC5)c34)c2)CC1` [Compound 13], for which the dTm in test [1] is given as 0.45 K; in test [2] it was 1.17 K; in test [3] it was 8.61 K; in test [4], 0.82 K; in test [5], 4.99 K; in test [6], 0.97 K.

With `COc1cc(S(C)(=O)=O)ccc1Nc1nc(N(C)C)c2c(Cl)c[nH]c2n1` [Compound 37], the dTm in test [1] was -0.63 K; in test [2] it was 0.22 K; in test [3], 9.71 K; in test [4] it was 0.32 K; in test [5] it was -0.48 K; in test [6], -1.44 K.

Regarding `O=C(Nc1cccc(-c2c[nH]c3ncnc(N4CCOCC4)c23)c1)C1(C(=O)Nc2ccc(F)c(F)c2)CC1` [Compound 17], the dTm is recorded as -0.41 K in test [1]; 0.06 K in test [2]; 6.96 K in test [3]; -3.87 K in test [4]; 2.05 K in test [5]; -0.35 K in test [6].

As for `CNC(=O)c1cc(Oc2ccc(NC(=O)Nc3cc(C(C)(C)C)nn3-c3ccc4ncccc4c3)c(F)c2)ccn1` [Rebastinib, reference compound], the dTm in test [1] was -1.54 K; in test [2], 4.23 K; in test [3] it was 6.81 K; in test [4] it was 0.28 K; in test [5], 10.65 K; in test [6] it was 0.57 K.

In turn, `CN[C@@H]1C[C@H]2O[C@@](C)([C@@H]1OC)n1c3ccccc3c3c4c(c5c6ccccc6n2c5c31)C(=O)NC4` [Staurosporine] came in with a dTm in test [4] of 8.53 K.

Take `Cn1cc(-c2c[nH]c3ncnc(N4CCOCC4)c23)cc1C#N` [PFE-360]: the dTm in test [2] was 4.09 K; in test [3], -2.21 K; in test [4], 2.32 K; in test [5], -0.69 K; in test [6], -0.11 K.

As to `Cc1ccc(C(=O)Nc2ccc(CN3CCN(C)CC3)c(C(F)(F)F)c2)cc1C#Cc1cnc2cccnn12` [Ponatinib, reference compound], the dTm in test [3] was -1.68 K.

As for `C[C@@H]1CN(c2cc(-c3n[nH]c4ccc(OC5(C)CC5)cc34)ncn2)C[C@H](C)O1` [MLi2], the dTm was -0.10 K in test [2]; 0.38 K in test [3]; 0.08 K in test [4]; -0.96 K in test [5]; 0.0124 K in test [6].
